According to patent US7173035B2, “Arylsulfonamide compounds” (Biovitrum AB, priority 2001, dated 2007):
Structures can show the parent of a compound that is named as a salt.

Assays:
Obese (ob/ob) mouse = assay: In vivo assay of reduction of food intake

Structure (SMILES): CN1CCCN(c2ccc(S(=O)(=O)Nc3ccccc3)cc2N)CC1 (as salt: hydrochloride) [Example 92, 3-Amino-4-(4-methyl-1,4-diazepan-1-yl)-N-phenylbenzenesulfonamide]
- melting point: 84 to 85 °C

Structure (SMILES): Cl.O=S(=O)(Nc1ccc(N2CCCNCC2)cc1NS(=O)(=O)c1ccccc1)c1ccccc1 [Example 27, N-{4-(homopiperazinyl)-2-[(phenylsulfonyl)amino]phenyl}benzenesulfonamide hydrochloride]
- Reduction of Food Intake (%) po administration (Obese (ob/ob) mouse; Dose 50 mg/Kg): 28%

Structure (SMILES): CCN(c1cc(N2CCCNCC2)ccc1NS(=O)(=O)c1ccccc1)S(=O)(=O)c1ccccc1.Cl [Example 29, N-{4-(1,4-diazepan-1-yl)-2-[ethyl(phenylsulfonyl)amino]phenyl}benzenesulfonamide hydrochloride]
- Reduction of Food Intake (%) po administration (Obese (ob/ob) mouse; Dose 100 mg/Kg): 60%
